Data taken from ChEMBL document CHEMBL1201862, “PubChem BioAssay data set” (2004).
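These data come from cells grown in 96-well plates and exposed to compound for 48 hours at five concentrations. GI50 is the concentration that inhibits growth by half.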 The source made the active and inactive calls. No stated cut-off is given here; in the data, active = GI50 up to about 1.1 µM and inactive = higher.

Tests used:
Experiment in all cases: DTP human tumour cell line panel, 48 h
[1] = test system: 786-0
[2] = test system: A498
[3] = test system: A549
[4] = test system: ACHN
[5] = test system: CCRF-CEM
[6] = test system: COLO 205
[7] = test system: DLD-1
[8] = test system: DMS-114
[9] = test system: DMS-273
[10] = test system: HCT-116
[11] = test system: HCT-15
[12] = test system: HL-60
[13] = test system: HOP-62
[14] = test system: HOP-92
[15] = test system: HT-29
[16] = test system: IGROV-1
[17] = test system: KM-20L2
[18] = test system: KM12
[19] = test system: LOX IMVI
[20] = test system: LXFL 529
[21] = test system: M14
[22] = test system: M19-MEL
[23] = test system: MOLT-4
[24] = test system: Malme-3M
[25] = test system: NCI-H226
[26] = test system: NCI-H23
[27] = test system: NCI-H460
[28] = test system: NCI-H522
[29] = test system: OVCAR-3
[30] = test system: OVCAR-4
[31] = test system: OVCAR-8
[32] = test system: RPMI-8226
[33] = test system: SF-268
[34] = test system: SF-295
[35] = test system: SF-539
[36] = test system: SK-MEL-28
[37] = test system: SK-MEL-2
[38] = test system: SK-MEL-5
[39] = test system: SK-OV-3
[40] = test system: SN12C
[41] = test system: SNB-75
[42] = test system: SNB-78
[43] = test system: SR
[44] = test system: TK-10
[45] = test system: U-251
[46] = test system: UACC-257
[47] = test system: UO-31
[48] = test system: XF498
[49] = test system: EKVX
[50] = test system: HCC 2998
[51] = test system: K562
[52] = test system: OVCAR-5
[53] = test system: RXF 393
[54] = test system: SNB-19
[55] = test system: SW-620
[56] = test system: UACC-62

`O=C(CSc1nc(-c2ccccc2)c(-c2ccccc2)[nH]1)N/N=C/c1ccc([N+](=O)[O-])cc1` was tested, and the GI50 [1] was 16.8 µM (inactive), the GI50 [2] was 14 µM (inactive) and the GI50 [3] was 29.6 µM (inactive). The GI50 [4] was 26.7 µM (inactive), the GI50 [5] was 21.4 µM (inactive) and the GI50 [6] was 16.7 µM (inactive). For the same molecule, the GI50 [7] was 18.1 µM (inactive), the GI50 [8] was 18.5 µM (inactive) and the GI50 [9] was 14.1 µM (inactive). The GI50 [10] was 18.7 µM (inactive), the GI50 [11] was 14 µM and the GI50 [12] was 34.8 µM (inactive). For the same molecule, the GI50 [13] was 17.7 µM (inactive), the GI50 [14] was 13.8 µM (inactive) and the GI50 [15] was 19.2 µM (inactive). For the same molecule, the GI50 [16] was 17.6 µM (inactive), the GI50 [17] was 8.87 µM (inactive) and the GI50 [18] was 17.3 µM (inactive). For the same molecule, the GI50 [19] was 15.9 µM (inactive), the GI50 [20] was 20.4 µM (inactive) and the GI50 [21] was 17.4 µM (inactive). The GI50 [22] was 17.1 µM (inactive), the GI50 [23] was 18.6 µM (inactive) and the GI50 [24] was 18.4 µM (inactive). For the same molecule, the GI50 [25] was 13.6 µM (inactive), the GI50 [26] was 14.7 µM (inactive) and the GI50 [27] was 19.4 µM (inactive). For the same molecule, the GI50 [28] was 14.5 µM (inactive), the GI50 [29] was 15.1 µM (inactive) and the GI50 [30] was 23 µM (inactive). The GI50 [31] was 10.3 µM (inactive), the GI50 [32] was 16.6 µM (inactive) and the GI50 [33] was 16.2 µM (inactive). The GI50 [34] was 19.8 µM (inactive), the GI50 [35] was 16 µM (inactive) and the GI50 [36] was 15.6 µM (inactive). The GI50 [37] was 13.8 µM (inactive), the GI50 [38] was 17.3 µM (inactive) and the GI50 [39] was 14.5 µM (inactive). For the same molecule, the GI50 [40] was 16.2 µM (inactive), the GI50 [41] was 21.8 µM (inactive) and the GI50 [42] was 21.2 µM (inactive). For the same molecule, the GI50 [43] was 30.9 µM (inactive), the GI50 [44] was 15.7 µM (inactive) and the GI50 [45] was 14.1 µM (inactive). The GI50 [46] was 19 µM (inactive), the GI50 [47] was 14.7 µM (inactive) and the GI50 [48] was 13.2 µM (inactive).

For `COc1cc2c(c(OC)c1OC)-c1ccc(SC)c(=O)cc1[C@@H](NC(=O)c1ccc(C#N)cc1)CC2`, the GI50 [1] was < 0.01 µM (active), the GI50 [2] was < 0.01 µM (active) and the GI50 [3] was < 0.01 µM (active). The GI50 [4] was < 0.01 µM (active), the GI50 [5] was < 0.01 µM (active) and the GI50 [6] was < 0.01 µM (active). The GI50 [7] was < 0.01 µM (active), the GI50 [8] was < 0.01 µM (active) and the GI50 [9] was < 0.01 µM (active). The GI50 [49] was < 0.01 µM (active), the GI50 [50] was < 0.01 µM (active) and the GI50 [10] was < 0.01 µM (active). For the same molecule, the GI50 [11] was < 0.01 µM, the GI50 [12] was < 0.01 µM (active) and the GI50 [13] was < 0.01 µM (active). For the same molecule, the GI50 [14] was < 0.01 µM (active), the GI50 [15] was < 0.01 µM (active) and the GI50 [16] was < 0.01 µM (active). For the same molecule, the GI50 [51] was < 0.01 µM (active), the GI50 [17] was < 0.01 µM (active) and the GI50 [18] was < 0.01 µM (active). The GI50 [19] was < 0.01 µM (active), the GI50 [20] was < 0.01 µM (active) and the GI50 [21] was < 0.01 µM (active). The GI50 [22] was < 0.01 µM (active), the GI50 [23] was < 0.01 µM (active) and the GI50 [24] was < 0.01 µM (active). For the same molecule, the GI50 [25] was < 0.01 µM (active), the GI50 [26] was < 0.01 µM (active) and the GI50 [27] was < 0.01 µM (active). For the same molecule, the GI50 [28] was < 0.01 µM (active), the GI50 [29] was < 0.01 µM (active) and the GI50 [30] was < 0.01 µM (active). The GI50 [52] was < 0.01 µM (active), the GI50 [31] was < 0.01 µM (active) and the GI50 [32] was < 0.01 µM (active). For the same molecule, the GI50 [53] was < 0.01 µM (active), the GI50 [33] was < 0.01 µM (active) and the GI50 [34] was < 0.01 µM (active). The GI50 [35] was < 0.01 µM (active), the GI50 [36] was > 79.8 µM (inactive) and the GI50 [37] was < 0.01 µM (active). The GI50 [38] was < 0.01 µM (active), the GI50 [39] was < 0.01 µM (active) and the GI50 [40] was < 0.01 µM (active). For the same molecule, the GI50 [54] was < 0.01 µM (active), the GI50 [41] was 0.146 µM (active) and the GI50 [42] was < 0.01 µM (active). For the same molecule, the GI50 [43] was < 0.01 µM (active), the GI50 [55] was < 0.01 µM (active) and the GI50 [44] was 3.3 µM (inactive). For the same molecule, the GI50 [45] was < 0.01 µM (active), the GI50 [46] was < 0.01 µM (active) and the GI50 [56] was < 0.01 µM (active). For the same molecule, the GI50 [47] was < 0.01 µM (active) and the GI50 [48] was < 0.01 µM (active).
